Assay: In vitro human cadaver nail flux study (modified Franz permeation cells)
Assay type: in vitro ADME
Experimental: The general methods for determining the in vitro nail flux are known in the art. See, for example, U.S. Pat. No. 5,696,164, and references cited therein.
In vitro human cadaver nail flux studies were conducted using modified Franz non-Jacketed permeation cells. The temperature of the nail surface was maintained at 32° C. by placing the cells in a circulating water bath positioned over a stirring module. Human fingernails or toenails were stored under frozen conditions in 0.02% (w/v) sodium azide solution or selected receiver medium. Nails that were greater than 1 cm^2 in area were used for the flux studies. Nails with dorsal side facing the donor compartment were sandwiched between two layers of a closed cell polyethylene foam film. Annular ring of 2.38 cm outer diameter and […] was cut from the backinig film. The area of the donut hole (0.97 cm^2) is large enough to provide complete contact with the receiver media. The purpose of the foam backing film was to prevent any leakage of receiver medium from the cell assembly. The nails were allowed to hydrate at 32° C. overnight with 0.02% (w/v) sodium azide solution in the receiver compartment.
The following morning, nail lacquer sufficient to cover the nail surface was placed onto the dorsal side of the nail. Alternatively, a fixed amount of the lacquer can also be used. Each nail was then loaded between the donor and receiver compartments of a diffusion cell, with the ventral side of nail facing the receiver compartment, and clamped in place. The duration of nail flux and retention study varied from 3 days to 3 weeks. At predetermined sampling intervals, the entire contents of the receiver compartment were collected for drug quantitation and the receiver compartment was filled with fresh receiver solution, taking care to eliminate any air bubbles at the skin/solution interface.
The cumulative amount of drug permeated per unit area at any time t (Qt, μg/cm^2) was determined as follows: [formula] […]

| increase in flux rate (Examples II and III, 5% enhancer in Gantrez ES-335/FLC versus formulation without enhancer) | enhancement of nail flux of fluconazole (Example I, using 3-5% triacetin versus formulation without enhancer) | increase in flux rate of fluconazole by pretreatment (Example V, pretreatment with an N-methyl-pyrrolidone composition versus control solution) | SMILES |
| --- | --- | --- | --- |
| about 40% |  |  | CCCCCCCCCCCC(=O)N(CCO)CCO [L-DEA, Lauramide Diethanolamine (DEA)] |
|  | about 100% | about 70% | OC(Cn1cncn1)(Cn1cncn1)c1ccc(F)cc1F [fluconazole, Fluconazole] |

From US6585963B1, “Nail compositions and methods of administering same” (Watson Pharmaceuticals, Inc., priority 2001, dated 2003)
